Reference: patent EP2608671B1, “COMPOUNDS FOR TREATMENT OF CANCER” (Gtx, Inc., priority 2010, dated 2012)
Where two headings read alike, the source gives them in different places.

Legend:
PC-3 = test: cells
Excerpt: (§1) The only compounds which belong to the invention are the ones falling under the scope of formula (XI).
Cells were stained with SRB solution.
Cells. […] Cells between the third and fifth passages were used for experiments.
Cell growth inhibition studies. […] Cells were stained with sulphorhodamine B (SRB) solution.

LNCaP = test: cells; conditions: Homo sapiens
A375 = test: SRB cell growth inhibition (cytotoxicity) assay; assay type: cell-based, human
PPC-1 = test: cells; conditions: Homo sapiens
DU 145 = test: cells; conditions: Homo sapiens
B16-F1 = test: SRB cell growth inhibition (cytotoxicity) assay; assay type: cell-based, mouse
Excerpt: as §1

[1] = Homo sapiens, PC-3, 96 h, read-out: IC50 ± SEM (nM), PC-3
[2] = 96 h, read-out: IC50 ± SEM (nM), LNCaP
[3] = Homo sapiens, A-375, 96 h; read-out: IC50 ± SEM (nM), A375
[4] = PPC-1, 96 h, read-out: IC50 ± SEM (nM), PPC-1
[5] = DU-145, 96 h, read-out: IC50 ± SEM (nM), DU 145
[6] = Mus musculus, B16-F1; read-out: IC50 ± SEM (nM), B16-F1
[7] = Homo sapiens, PC-3, read-out: IC50 ±SEM (nM), PC-3
[8] = read-out: IC50 ±SEM (nM), LNCaP
[9] = PPC-1, read-out: IC50 ±SEM (nM), PPC-1
[10] = DU-145, read-out: IC50 ±SEM (nM), DU 145
[11] = Homo sapiens, PC-3, 96 h, read-out: IC50 (nM), PC-3

`COc1cc(C(=O)c2cccc(-c3ccccc3)c2)cc(OC)c1OC` [1a, Biphenyl-3-yl(3,4,5-trimethoxyphenyl)methanone] was tested, and the IC50 (PC-3; [1]) was 81 nM, the IC50 (LNCaP; [2]) was 234 nM and the IC50 (A375; [3]) was 87 ± 15 nM. The IC50 (PPC-1; [4]) was 85 nM, the IC50 (DU 145; [5]) was 178 nM and the IC50 (B16-F1; [6]) was 500 ± 200 nM.

With `COc1cc(C(O)c2csc(-c3ccccc3)n2)cc(OC)c1OC` (centres unmarked) [2b, (2-Phenylthiazol-4-yl)(3,4,5-trimethoxyphenyl)methanol] the IC50 (PC-3; [1]) was over 10000 nM, the IC50 (LNCaP; [2]) was over 10000 nM and the IC50 (A375; [3]) was over 30000 nM. It also gave an IC50 (PPC-1; [4]) of over 10000 nM, an IC50 (DU 145; [5]) of over 10000 nM and an IC50 (B16-F1; [6]) of over 30000 nM.

Molecule `COc1cc(/C(=N/N)c2csc(-c3ccccc3)n2)cc(OC)c1OC` [2d-cis, (Z)-4-(hydrazono(3,4,5-trimethoxyphenyl)methyl)-2-phenylthiazole] has an IC50 (PC-3; [1]) of 1120 nM, an IC50 (LNCaP; [2]) of 1800 nM and an IC50 (A375; [3]) of 900 ± 300 nM. It also gave an IC50 (PPC-1; [4]) of 872 nM, an IC50 (DU 145; [5]) of 1210 nM and an IC50 (B16-F1; [6]) of 2000 ± 800 nM.

With `COc1cc(/C(=N\N)c2csc(-c3ccccc3)n2)cc(OC)c1OC` [2d-trans, (E)-4-(hydrazono(3,4,5-trimethoxyphenyl)methyl)-2-phenylthiazole] the IC50 (PC-3; [1]) was 1040 nM, the IC50 (LNCaP; [2]) was 1300 nM and the IC50 (A375; [3]) was 600 ± 200 nM. It also gave an IC50 (PPC-1; [4]) of 966 nM, an IC50 (DU 145; [5]) of 1210 nM and an IC50 (B16-F1; [6]) of 1800 ± 700 nM.

In the case of `COc1cc(NC(=O)c2csc(-c3ccccc3)n2)cc(OC)c1OC` [2g, 2-Phenyl-N-(3,4,5-trimethoxyphenyl)thiazole-4-carboxamide], the IC50 (PC-3; [1]) is reported as over 10000 nM, the IC50 (A375; [3]) is reported as over 30000 nM and the IC50 (PPC-1; [4]) is reported as over 10000 nM. It also gave an IC50 (DU 145; [5]) of over 10000 nM and an IC50 (B16-F1; [6]) of over 30000 nM.

With `COc1cc(C(=O)Nc2csc(-c3ccccc3)n2)cc(OC)c1OC` [2h, 3,4,5-Trimethoxy-N-(2-phenylthiazol-4-yl)benzamide] the IC50 (PC-3; [1]) was over 10000 nM, the IC50 (LNCaP; [2]) was over 10000 nM and the IC50 (A375; [3]) was over 30000 nM. The IC50 (PPC-1; [4]) was over 10000 nM, the IC50 (DU 145; [5]) was over 10000 nM and the IC50 (B16-F1; [6]) was over 30000 nM.

Molecule `COc1cc(C(=O)c2csc(-c3ccc(CC#N)cc3)n2)cc(OC)c1OC` [2n, 2-(4-(4-(3,4,5-Trimethoxybenzoyl)thiazol-2-yl)phenyl)acetonitrile] has an IC50 (PC-3; [7]) of 131 nM, an IC50 (LNCaP; [8]) of 101 nM and an IC50 (A375; Homo sapiens, A-375; Table 6; read-out: IC50 ±SEM (nM), A375) of 210 nM. For the same molecule, the IC50 (PPC-1; [9]) was 99 nM, the IC50 (DU 145; [10]) was 143 nM and the IC50 (B16-F1; Mus musculus, B16-F1; Table 6; read-out: IC50 ±SEM (nM), B16-F1) was 290 nM.

`COc1cc(/C=C\c2csc(-c3ccccc3)n2)cc(OC)c1OC` [3a, (Z)-2-Phenyl-4-(3,4,5-trimethoxystyryl)thiazole] gave an IC50 (PC-3; [1]) of over 10000 nM, an IC50 (LNCaP; [2]) of over 10000 nM and an IC50 (A375; Homo sapiens, A-375, 96 h, read-out: IC50 ± SEM (nM), A375) of 46500 ± 23300 nM. For the same molecule, the IC50 (PPC-1; [4]) was over 10000 nM, the IC50 (DU 145; [5]) was over 10000 nM and the IC50 (B16-F1; Mus musculus, B16-F1, read-out: IC50 ± SEM (nM), B16-F1) was 11000 ± 2800 nM.

`COc1cc(C(=O)c2csc(Nc3ccc(Cl)cc3)n2)cc(OC)c1OC` [5d, (2-((4-Chlorophenyl)amino)thiazol-4-yl)(3,4,5-trimethoxyphenyl)methanone] showed an IC50 (PC-3; [1]) of 33 ± 1 nM, an IC50 (LNCaP; [2]) of 45 ± 1 nM and an IC50 (A375; [3]) of 25 ± 7 nM. For the same molecule, the IC50 (PPC-1; [4]) was 36 ± 1 nM and the IC50 (DU 145; [5]) was 73 ± 1 nM.

For `Clc1nccc2ccc(-c3ccc4[nH]ccc4c3)cc12` [6d, 1-Chloro-7-(1H-indol-5-yl)-isoquinoline], the IC50 (PC-3; [7]) was 908 nM, the IC50 (LNCaP; [8]) was 703 nM and the IC50 (PPC-1; [9]) was 929 nM. For the same molecule, the IC50 (DU 145; [10]) was 1640 nM.

With `O=S(=O)(c1ccccc1)n1ccnc1-c1ccccc1` [10a, 2-phenyl-1-(phenylsulfonyl)-1H-imidazole] the IC50 (PC-3; [11]) was over 10000 nM.

For `O=S(=O)(c1ccccc1)n1ccnc1-c1ccc(OCc2ccccc2)cc1` [10j, 2-(4-(benzyloxy)phenyl)-1-(phenylsulfonyl)-1H-imidazole], the IC50 (PC-3; [11]) was over 10000 nM.

With `O=[N+]([O-])c1ccc(-c2nccn2S(=O)(=O)c2ccccc2)cc1` [10x, 2-(4-nitrophenyl)-1-(phenylsulfonyl)-1H-imidazole] the IC50 (PC-3; [11]) was over 10000 nM.

Molecule `COc1cc(C(=O)n2ccnc2-c2ccccc2)cc(OC)c1OC` [12aaa, (2-phenyl-1H-imidazol-1-yl)(3,4,5-trimethoxyphenyl)methanone] has an IC50 (PC-3; [11]) of over 10000 nM.

With `COc1ccc(C(=O)n2ccnc2-c2ccccc2)cc1` [12aba] the IC50 (PC-3; read-out: IC50 (nM), PC-3, SRB, 96 h, Table 11) was over 10000 nM.

Work on `COc1ccc(C(=O)c2c[nH]c(-c3ccccc3)n2)cc1OC` [12ae, (3,4-dimethoxyphenyl)(2-phenyl-1H-imidazol-4-yl)methanone] yielded an IC50 (PC-3; [11]) of over 10000 nM.
